# How the values were obtained:
# Format in all cases: cell-based
# HT22 cells [1] = experiment: Annexin V-PI detection by flow cytometry; settings: BAPTA/AM co-treatment, annexin V-PI staining
# Protocol: Apoptosis was detected with Annexin V staining kit (BD Biosciences, CA, USA). […] The number of apoptotic cells was quantified by flow cytometry (BD FACSAria III, CA, USA). Data acquisition and analysis were performed with CellQuest (BD Biosciences) from three independent experiments.
# HT22 cells [2] = experiment: Cytoplasmic calcium dynamics (FLIPR Calcium 6); settings: HT22 cells, TG or Aβ 30 μM
# Protocol: Intracellular Ca^2+ dynamics were determined using the FLIPR Calcium 6 Assay Kit (Molecular Devices) according to the manufacturer's instructions. Briefly, HT22 was housed at 4 × 10^4 cells per well in a black-walled and clear-bottom 96 multi-well plate (Costar, MA, USA) and treated with Calcium 6 reagent for 1 h.
# HT22 cells [3] = experiment: Fluo-3 detection of calcium ion concentration; settings: after addition of Aβ
# Protocol: 2 × 10^5 HT22 cells were incubated in 35 mm confocal dishes for 24 h at 37 °C in a CO^2 incubator. A 5 mM Fluo-3 AM stock solution was diluted with Hanks-Balanced Salt Solution (HBSS) to a 5 μM working solution and then added to the cells for 30 min at 37 °C. HT22 cells were washed three times with HEPES-buffered saline and then incubated in an imaging chamber at 37 °C for an additional 10 min. After the addition of 30 μM of Aβ aggregates in HBSS buffer, changes in cellular Ca^2+ levels were monitored by epifluorescence microscopy (Applied Precision DeltaVision Elite, Applied Precision, Inc., United States) using the real-time mode for tracking Fluo-3 changes for 5 min. The data inspection program provided by DeltaVision software was used to measure the intensity of Fluo-3 fluorescence.
# HT22 cells [4] = experiment: Cytotoxicity (MTT) assay; settings: aggregated Aβ 30 μM
# Protocol: Cytotoxicity was assessed using the MTT (5.0 mg/mL) assay. 4 × 10^3 HT22 cells per well were seeded in 96-well plates. After overnight incubation, cells were treated with Aβ aggregates (30 μM) for 48 h with or without the presence of HYP (20–80 μM). Cells were treated with DMSO as a control. Subsequently, MTT (10 μL) was added to each well for 4 h, followed by the addition of 100 μL of lysis buffer (10% SDS in 0.01 mol/L hydrochloric acid) and overnight incubation. The absorbance was measured at 570 nm the next day. The formula was calculated as a percentage of cell viability: Cell viability (%) = A (treatded) / A (control) × 100%. Data were obtained from three independent experiments in triplicate.
# HT22 cells [5] = experiment: Mitochondrial membrane potential by JC-1; settings: CCCP positive control
# Excerpt: The mitochondrial membrane potential of HT22 stained with 5,5′,6,6′-tetrachloro-1,1′,3,3′-tetraethylbenzimidazolyl cobalt iodide (JC-1) was observed by laser scanning confocal microscopy.
compound,measurement,setting,value
CC(=O)OCOC(=O)CN(CC(=O)OCOC(C)=O)c1ccccc1OCCOc1ccccc1N(CC(=O)OCOC(C)=O)CC(=O)OCOC(C)=O [BAPTA/AM],percentage of Aβ-induced cell death,HT22 cells [1],decrease the percentage of Aβ-induced cell death
"C/C=C(/C)C(=O)O[C@H]1C(C)=C2[C@H]([C@@H]1OC(=O)CCCCCCC)[C@@](C)(OC(C)=O)C[C@H](OC(=O)CCC)[C@@]1(O)[C@H]2OC(=O)[C@@]1(C)O [TG, Thapsigargin, reference compound]","dynamic Ca2+ level, inducer alone",HT22 cells [2],prompt increase in Ca^2+ level
Aβ: Aβ (1–42) peptide incubated at 37 °C for 5 days to form Aβ aggregates [reference compound],Fluo-3 fluorescence intensity (Ca2+ level),HT22 cells [3],significant increase of fluorescence intensity
same,cell death by aggregated Aβ alone,HT22 cells [4],induced cell death in HT22
"Carbonyl cyanide m-chlorophenyl hydrazine [CCCP, reference compound]",mitochondrial membrane potential (JC-1),HT22 cells [5],loss of membrane potential

# Reference: PMC9975698, “Hyperoside alleviates toxicity of β-amyloid via endoplasmic reticulum-mitochondrial calcium signal transduction cascade in APP/PS1 double transgenic Alzheimer's disease mice” (Redox Biology, 2023)
